The text below walks through data of USRE39221E1, “Composition comprising a tramadol material and acetaminophen and its use” (priority 1991, dated 2006).

The test system of this test is acetylcholine-induced abdominal constriction. Put plainly: prevention of acetylcholine-induced abdominal constriction in mice (analgesic activity). Format: in vivo, mice (male CD1). The following applies: for ED50: Mus musculus, po, 0.5 h; for analgesia: 30 min. On the procedure: Male CD1 mice (weighing from 18-24 g) were utilized in determining the analgesic effects associated with the compositions of the invention. The mice were all dosed orally with tramadol hydrochloride (calculated as the base), which was completely dissolved in distilled water, and acetaminophen (calculated as the base), which was completely dissolved in distilled water or in distilled water containing 2% by volume of Tween 80 containing 100% polysorbate 80. The dosing volume was 10 mL/kg.
The procedure used in detecting and comparing the analgesic activity of different classes of analgesia drugs for which there is a good correlation with human efficacy is the prevention of acetylcholine-induced abdominal constriction in mice (H. Collier et al., Br. J. Pharmacol., 32, 295 (1968)).
Mice, intubated with various doses of tramadol hydrochloride alone, acetaminophen alone, combined doses of tramadol hydrochloride and acetaminophen, or vehicle such as distilled water, or distilled water containing 2% by volume of Tween 80, were injected intraperitoneally with a challenge dose of acetylcholine bromide. The acetylcholine was completely dissolved in distilled water at a concentration of […] and injected at the rate of 0.20 mL/20 g. For scoring purposes an “abdominal constriction” was defined as a contraction of the abdominal musculature accompanied by arching of the back and extension of the limbs. The mice were observed 10 minutes for the presence or absence of the abdominal constriction response beginning immediately after receiving the acetylcholine dose, which was 30 minutes after receiving the oral administration of tramadol hydrochloride, acetaminophen, combined doses of tramadol hydrochloride and acetaminophen, or vehicle. Each mouse was used only once.
The analysis of possible superadditivity for the compositions at each fixed ratio was determined as disclosed by R. J. Tallarida et al., Life Sci., 45, 947 (1989). This procedure involved the determination of the total amount in the mixture that is required to produce a specified level of effect, such as 50% (ED50mix), and the corresponding total amount that would be expected under simple additivity (ED50add). Where it was established that ED50mix<ED50add for a specific fixed-ratio, then that composition ratio was superadditive. Both the quantities ED50mix and ED50add were random variables; ED50mix was estimated from the dose-response curve for a specific fixed-ratio; ED50add was obtained by combining the ED50 estimates for the two drugs under additivity. ED50mix was then compared to ED50add via a Student's t-test.
The interaction between tramadol and acetaminophen was determined at precise dosage ratios of tramadol hydrochloride and acetaminophen. Multiple (typically 4-6) coded doses of each selected combination were studied for analgesic effectiveness after 30 minutes using an experimental design which permitted the complete randomization of the separate dosage forms tested.
In FIG. 1, the diagonal line joining the ED50 values of the two drugs given separately represents the simple additivity of effects at different component ratios. The dotted lines adjacent to the diagonal line define the 95% confidence interval. ED50 values falling under the curve (between the line and the origin) indicate superadditivity, i.e., unexpected enhancement of effects. The diagonal dashed lines radiating from the origin represent the dose ratios of APAP to tramadol hydrochloride used in mice receiving the combined drug dosages. The bars through the ED50 points for the tramadol and APAP composition represent the 95% confidence intervals of the ED50 value.

SMILES strings stand for the structures. Like-named read-outs stand apart in the source and are kept apart here.

As a reminder, the ED50 is the midpoint of the dose-response relation. Consider `COc1cccc([C@@]2(O)CCCC[C@@H]2CN(C)C)c1` (racemic) [tramadol only, (1RS, 2RS)-[(dimethylamino)-methyl]-1-(3-methoxy-phenyl)cyclohexanol], for which, for the setting “read-out: ED50 30 min (95% CI's) Tramadol”, the ED50 was found to be 5.5 mg/kg. Besides, the analgesia (dose Tramadol 2 + APAP 0 mg/kg, p.o.) was 3/15; the analgesia (dose Tramadol 3 + APAP 0 mg/kg, p.o.) is 4/15; the analgesia (dose Tramadol 4 + APAP 0 mg/kg, p.o.) is listed as 14/45; the analgesia (dose Tramadol 6 + APAP 0 mg/kg, p.o.) is on record as 20/45; the analgesia (dose Tramadol 8 + APAP 0 mg/kg, p.o.) is 40/60; the analgesia (dose Tramadol 10 + APAP 0 mg/kg, p.o.) was 15/15. The analgesia (dose Tramadol 16 + APAP 0 mg/kg, p.o.) is reported as 14/15.

For `CC(=O)Nc1ccc(O)cc1` [APAP only, acetaminophen], the ED50 (APAP component of the ED50, p.o., 30 min after dosing, read-out: ED50 30 min (95% CI's) APAP) is 164 mg/kg. The analgesia is 2/15 (dose Tramadol 0 + APAP 30 mg/kg, p.o.); 12/43 (dose Tramadol 0 + APAP 40 mg/kg, p.o.); 1/15 (dose Tramadol 0 + APAP 50 mg/kg, p.o.); 8/30 (dose Tramadol 0 + APAP 60 mg/kg, p.o.); 23/60 (dose Tramadol 0 + APAP 80 mg/kg, p.o.); 13/30 (dose Tramadol 0 + APAP 100 mg/kg, p.o.). In addition, the analgesia (dose Tramadol 0 + APAP 120 mg/kg, p.o.) is recorded as 13/30; the analgesia (dose Tramadol 0 + APAP 160 mg/kg, p.o.) is recorded as 10/30; the analgesia (dose Tramadol 0 + APAP 200 mg/kg, p.o.) is 13/25; the analgesia (dose Tramadol 0 + APAP 240 mg/kg, p.o.) is reported as 14/25; the analgesia (dose Tramadol 0 + APAP 400 mg/kg, p.o.) is recorded as 12/15; the analgesia (dose Tramadol 0 + APAP 800 mg/kg, p.o.) is given as 13/15.
